Results on 28 compounds are retold here after US8383637B2, “2-amino-quinazoline derivatives useful as inhibitors of β-secretase (BACE)” (Jansssen Pharmaceutica N.V., priority 2004, dated 2013).

Some results are limits rather than exact numbers.

The experiment has as its target T1, β-secretase(BACE) (Homo sapiens, UniProt P56817).
T1 construct: purchased Panvera
Kind of experiment: BACE FS1% Inhibition Assay. Format: biochemical. Conditions: FS1 substrate; for % Inhibition (FS) 0.3 μM: 0.3 μM test compound; for % Inhibition (FS) 1 μM: 1 μM test compound; for % Inhibition (FS) 3 μM: 3 μM test compound. How it is done:
BACE FS1% Inhibition Assay The following reagents were used in this assay: sodium acetate, PEG8000 (Sigma), DMSO, HEPES, FS1 substrate [[…]] […] The FS1-substrate stock solution was prepared in DMSO as a 10 mg/mL solution. The FS1-substrate working solution was prepared by diluting the 10 mg/mL stock solution with substrate assay buffer to a final concentration of 300 μg/mL. The β-secretase (BACE) working solution was prepared by diluting a 0.83 mg/mL BACE stock solution with enzyme assay buffer to a final concentration of 4 μg/mL. Test compounds were dissolved in DMSO to 10 mM. […] The screening procedure for this assay was as follows: 15 μL of BACE working solution was pipetted into each well of a 96-well plate. To each well was then pipetted 2 μL of test compound at the selected concentration. Test compound and BACE were then mixed with a pipettor and incubated for 20 min at room temperature. To each well was then added 10 μL of the FS1 substrate working solution. The plates were then incubated for 1 hour at room temperature. […] The procedure for the blank was as follows. 15 μL of assay buffer was pipetted into each well to be used as a blank control. To each well was then added 2 μL of vehicle and 10 μL of FS1-substrate working solution. The plates were then incubated for 1 hour at room temperature. […] The procedure for the positive control was as follows: 15 μL of BACE working solution was pipetted into each well to be used as a positive control. To each well was then pipetted 2 μL of vehicle. Vehicle and BACE were then mixed with a pipettor and incubated for 20 min at room temperature. To each well was then added 10 μL of the FS1 substrate working solution. The plates were then incubated for 1 hour at room temperature. […] For test compounds, % inhibition was determined at each concentration as follows: [formula]

T1 sequence (P56817 46-501): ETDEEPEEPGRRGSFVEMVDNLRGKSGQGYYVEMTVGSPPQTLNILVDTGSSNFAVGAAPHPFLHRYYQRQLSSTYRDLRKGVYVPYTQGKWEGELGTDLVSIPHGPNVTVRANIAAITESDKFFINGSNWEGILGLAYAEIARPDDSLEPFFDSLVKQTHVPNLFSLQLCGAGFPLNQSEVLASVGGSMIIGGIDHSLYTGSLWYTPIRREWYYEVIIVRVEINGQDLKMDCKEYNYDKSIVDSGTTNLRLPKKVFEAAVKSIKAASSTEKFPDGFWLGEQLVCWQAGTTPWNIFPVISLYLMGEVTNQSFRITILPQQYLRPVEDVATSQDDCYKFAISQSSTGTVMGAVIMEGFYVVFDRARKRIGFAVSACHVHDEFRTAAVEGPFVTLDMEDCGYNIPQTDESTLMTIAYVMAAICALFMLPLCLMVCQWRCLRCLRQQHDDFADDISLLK

Take `COc1cccc(C(=O)NCCN2Cc3cc(Oc4ccccc4)ccc3N=C2N)c1` [Compound 217]: the “% Inhibition (FS) 0.3 μM” value is less than 30%, the “% Inhibition (FS) 1 μM” value is given as less than 30% and the “% Inhibition (FS) 3 μM” value was 56%.
Consider `CN1CCCC1CCNC(=O)c1cccc(CN2Cc3cc(Oc4ccccc4)ccc3N=C2N)c1` (stereo not drawn) [Compound 222], for which the “% Inhibition (FS) 0.3 μM” value is given as less than 30%, the “% Inhibition (FS) 1 μM” value is given as less than 30% and the “% Inhibition (FS) 3 μM” value is on record as less than 30%.
`CN1CCC(N(C)C(=O)c2cccc(CN3Cc4cc(Oc5ccccc5)ccc4N=C3N)c2)CC1` [Compound 223]: the “% Inhibition (FS) 0.3 μM” value is listed as less than 30%, the “% Inhibition (FS) 1 μM” value was less than 30% and the “% Inhibition (FS) 3 μM” value is listed as less than 30%.
As for `CC(C)(C)OC(=O)Nc1cccc(CN2Cc3cc(Oc4ccccc4)ccc3N=C2N)c1` [Compound 224], the “% Inhibition (FS) 0.3 μM” value was less than 30%, the “% Inhibition (FS) 1 μM” value is on record as less than 30% and the “% Inhibition (FS) 3 μM” value is less than 30%.
`Cc1cc(C)cc(Oc2ccc3c(c2)CN(Cc2cccc(C(=O)N(C)C4CCCCC4)c2)C(N)=N3)c1` [Compound 228]: the “% Inhibition (FS) 0.3 μM” value is given as less than 30%, the “% Inhibition (FS) 1 μM” value was determined as 49% and the “% Inhibition (FS) 3 μM” value is recorded as 40%.
On to `CC(=O)Nc1cccc(Oc2ccc3c(c2)CN(Cc2cccc(C(=O)N(C)C4CCCCC4)c2)C(N)=N3)c1` [Compound 229], for which the “% Inhibition (FS) 0.3 μM” value is given as less than 30%, the “% Inhibition (FS) 1 μM” value is listed as 35% and the “% Inhibition (FS) 3 μM” value is less than 30%.
On to `CN(C(=O)c1cccc(CN2Cc3cc(Oc4cccnc4)ccc3N=C2N)c1)C1CCCCC1` [Compound 230], for which the “% Inhibition (FS) 0.3 μM” value was less than 30%, the “% Inhibition (FS) 1 μM” value came out at 33% and the “% Inhibition (FS) 3 μM” value is less than 30%.
With `COc1ccccc1Oc1ccc2c(c1)CN(Cc1cccc(C(=O)N(C)C3CCCCC3)c1)C(N)=N2` [Compound 232], the “% Inhibition (FS) 0.3 μM” value is recorded as less than 30%, the “% Inhibition (FS) 1 μM” value is less than 30% and the “% Inhibition (FS) 3 μM” value turned out to be 31%.
As for `CN(C(=O)c1cccc(CN2Cc3cc(Oc4ccc5c(c4)CCCC5)ccc3N=C2N)c1)C1CCCCC1` [Compound 233], the “% Inhibition (FS) 0.3 μM” value is less than 30%, the “% Inhibition (FS) 1 μM” value came out at 32% and the “% Inhibition (FS) 3 μM” value is recorded as 36%.
`CN(C(=O)c1cccc(CN2Cc3cc(Oc4ccccc4-c4ccccc4)ccc3N=C2N)c1)C1CCCCC1` [Compound 234]: the “% Inhibition (FS) 0.3 μM” value was less than 30%, the “% Inhibition (FS) 1 μM” value was determined as 57% and the “% Inhibition (FS) 3 μM” value was determined as 43%.
On to `CN(C(=O)c1cccc(CN2Cc3cc(Oc4ccccc4CC(N)=O)ccc3N=C2N)c1)C1CCCCC1` [Compound 235], for which the “% Inhibition (FS) 0.3 μM” value was less than 30%, the “% Inhibition (FS) 1 μM” value was 46% and the “% Inhibition (FS) 3 μM” value is less than 30%.
For `CN(C(=O)c1cccc(CN2Cc3cc(Oc4cccc(Oc5ccccc5)c4)ccc3N=C2N)c1)C1CCCCC1` [Compound 236], the “% Inhibition (FS) 0.3 μM” value is less than 30%, the “% Inhibition (FS) 1 μM” value came out at 37% and the “% Inhibition (FS) 3 μM” value is recorded as 49%.
As for `CC(C)(C)OC(=O)NCC(C1CCCCC1)N1Cc2cc(Oc3ccccc3)ccc2N=C1N` (stereo not drawn) [Compound 257], the “% Inhibition (FS) 0.3 μM” value is recorded as 67%, the “% Inhibition (FS) 1 μM” value is given as 105% and the “% Inhibition (FS) 3 μM” value worked out at 111%.
Turning to `CN(C(=O)c1cccc(CN2Cc3cc(C=Cc4ccccc4)ccc3N=C2N)c1)C1CCCCC1` [Compound 266], the “% Inhibition (FS) 0.3 μM” value is less than 30%, the “% Inhibition (FS) 1 μM” value turned out to be 34% and the “% Inhibition (FS) 3 μM” value is recorded as less than 30%.
As for `CN(C(=O)c1cccc(CN2Cc3cc(-c4ccc(C5CCCCC5)cc4)ccc3N=C2N)c1)C1CCCCC1` [Compound 267], the “% Inhibition (FS) 0.3 μM” value is reported as less than 30%, the “% Inhibition (FS) 1 μM” value turned out to be 39% and the “% Inhibition (FS) 3 μM” value is on record as 38%.
With `NC1=Nc2ccc(Oc3ccccc3)cc2CN1Cc1cccc(NC(=O)C2CCCCC2)c1` [Compound 286], the “% Inhibition (FS) 0.3 μM” value is recorded as less than 30%, the “% Inhibition (FS) 1 μM” value is less than 30% and the “% Inhibition (FS) 3 μM” value is listed as 36%.
Take `CC(C)(C)C(=O)Nc1cccc(CN2Cc3cc(Oc4ccccc4)ccc3N=C2N)c1` [Compound 290]: the “% Inhibition (FS) 0.3 μM” value was less than 30%, the “% Inhibition (FS) 1 μM” value is less than 30% and the “% Inhibition (FS) 3 μM” value is given as less than 30%.
Regarding `NC1=Nc2ccc(Oc3ccccc3)cc2CN1C(CNC(=O)C1CCCC1)C1CCCCC1` (stereo not drawn) [Compound 295], the “% Inhibition (FS) 0.3 μM” value stood at 79%, the “% Inhibition (FS) 1 μM” value was determined as 106% and the “% Inhibition (FS) 3 μM” value stood at 116%.
As for `NC1=Nc2ccc(Oc3ccccc3)cc2CN1C(CC(=O)NC1CCCCC1)c1ccccc1` (stereo not drawn) [Compound 299], the “% Inhibition (FS) 0.3 μM” value is given as less than 30%, the “% Inhibition (FS) 1 μM” value is listed as less than 30% and the “% Inhibition (FS) 3 μM” value is less than 30%.
Regarding `NC1=Nc2ccc(Oc3ccccc3)cc2CN1C(CC(=O)NC1CCCCC1)C1CCCCC1` (stereo not drawn) [Compound 300], the “% Inhibition (FS) 0.3 μM” value was less than 30%, the “% Inhibition (FS) 1 μM” value is less than 30% and the “% Inhibition (FS) 3 μM” value came out at 77%.
Regarding `NC1=Nc2ccc(Oc3ccccc3)cc2CN1Cc1cccc(CNC(=O)C2CCCCC2)c1` [Compound 306], the “% Inhibition (FS) 0.3 μM” value was less than 30%, the “% Inhibition (FS) 1 μM” value is given as less than 30% and the “% Inhibition (FS) 3 μM” value is recorded as 46%.
For the compound `NC1=Nc2ccc(Oc3ccccc3)cc2CN1Cc1cccc(CNC(=O)C(F)(F)F)c1` [Compound 307], the “% Inhibition (FS) 0.3 μM” value is given as less than 30%, the “% Inhibition (FS) 1 μM” value is reported as less than 30% and the “% Inhibition (FS) 3 μM” value is recorded as less than 30%.
On to `CN(C(=O)c1cccc(C(CC2CCCCC2)N2Cc3cc(Oc4ccccc4)ccc3N=C2N)c1)C1CCCCC1` (stereo not drawn) [Compound 310], for which the “% Inhibition (FS) 0.3 μM” value is reported as less than 30%, the “% Inhibition (FS) 1 μM” value is listed as less than 30% and the “% Inhibition (FS) 3 μM” value was 57%.
As for `NC1=Nc2ccc(Oc3ccccc3)cc2CN1C(CNC(=O)C12CC3CC(CC(C3)C1)C2)C1CCCCC1` (stereo not drawn) [Compound 312], the “% Inhibition (FS) 0.3 μM” value is given as 74%, the “% Inhibition (FS) 1 μM” value worked out at 103% and the “% Inhibition (FS) 3 μM” value came out at 115%.
Consider `CC(C)c1ccccc1Oc1ccc2c(c1)CN(C(CC(=O)NC1CCCCC1)C1CCCCC1)C(N)=N2` (stereo not drawn) [Compound 313], for which the “% Inhibition (FS) 0.3 μM” value is reported as less than 30%, the “% Inhibition (FS) 1 μM” value is less than 30% and the “% Inhibition (FS) 3 μM” value is given as 31%.
Consider `NC1=Nc2ccc(Oc3ccccc3)cc2CN1C(CC(=O)NC1C2CC3CC(C2)CC1C3)C1CCCCC1` (stereo not drawn) [Compound 314], for which the “% Inhibition (FS) 0.3 μM” value is less than 30%, the “% Inhibition (FS) 1 μM” value amounted to 45% and the “% Inhibition (FS) 3 μM” value worked out at 85%.
Regarding `CC(C)(C)OC(=O)NCc1cccc(CN2Cc3cc(Oc4ccccc4)ccc3N=C2N)c1` [Compound 315], the “% Inhibition (FS) 0.3 μM” value is recorded as less than 30%, the “% Inhibition (FS) 1 μM” value was less than 30% and the “% Inhibition (FS) 3 μM” value is recorded as 33%.
Take `CN1CCC(N(C)C(=O)c2cccc(C(c3ccccc3)N3Cc4cc(Oc5ccccc5)ccc4N=C3N)c2)CC1` (stereo not drawn) [Compound 316]: the “% Inhibition (FS) 0.3 μM” value is listed as less than 30%, the “% Inhibition (FS) 1 μM” value is reported as less than 30% and the “% Inhibition (FS) 3 μM” value is recorded as less than 30%.
